# Data reported in patent US20240180872A1, “METHODS AND COMPOUNDS OF CANNABIDIOL, MELATONIN AND AKBA FOR TREATING PANCREATIC CANCER” (priority 2021, published 2024).
# Tested on: pancreatic adenocarcinoma associated genes
# Assay: TaqMan Array gene expression in MIAPaCa-2, normalized for GAPDH
# Assay type: cell-based, Human
# Conditions: Mia-PACA-2, 24 hs, CBD 3.8, MLT 200, AKBA 7.5 micrograms/ml
# Method: Total RNA from untreated or CBD, MLT, AKBA alone and in combination treated cell lines was extracted using Rneasy Mini kit (Qiagen, Milan, Italy). One microgram of total RNA from each sample was subjected to reverse transcription in a total volume of 20 μL using the High-Capacity cDNA Archive Kit (Applied Biosystem, Foster City, […], USA) according to the instructions. cDNAs were analyzed by qRT-PCR performed using an IQ5 Multicolor Real time PCR Detection system. Quantitative real-time gene expression was performed with the TaqMan® Array Human Pancreatic Adenocarcinoma 96-well Plate, containing 92 assays to pancreatic adenocarcinoma associated genes and 4 assays to candidate endogenous control genes, was purchased (Thermo Fisher, Grand Island, NY, USA) and used to evaluate the treatments in modulating PDAC-related genes (Table 1). Measurement of different housekeeping genes (GAPDH; HPRT1; GUSB) on the samples was used to normalize mRNA content. The gene expression levels of treated cell lines were expressed as relative fold compared with untreated or vehicle-treated cells.
# To elucidate the molecular events induced by CBD, MLT and AKBA alone and in combination, 92 genes involved in PDAC progression and aggressiveness were evaluated by Taqman Array. Both cell lines were treated with CBD, MLT and AKBA alone and in combination, and the molecular pathways of PDAC associated gene were evaluated.
# Target mRNA levels were normalized for GAPDH expression.
# [1] = normalized for GAPDH, Akt pathways
# [2] = normalized for GAPDH, Akt-pathways
# [3] = normalized for GAPDH, DNA repair
# [4] = normalized for GAPDH, NfkB pathways
# [5] = normalized for GAPDH, Ras pathways
# [6] = normalized for GAPDH, TGF patways
# [7] = normalized for GAPDH, TGF-patways
# [8] = normalized for GAPDH, angiogenesis
# [9] = normalized for GAPDH, apoptosis
# [10] = normalized for GAPDH, cell cycle
# [11] = normalized for GAPDH, inflammation
# [12] = normalized for GAPDH, proliferation
compound,measurement,setting,value
"COc1ccc2[nH]cc(CCNC(C)=O)c2c1 [MLT, N-[2-(5-methoxy-1H-indol-3-yl)ethyl]acetamide]",GAPDH relative expression,GAPDH is the normalizer,1.00
same,PK3CB relative expression,[1],0.15
same,PK3CD relative expression,[1],0.07
same,AKT1 relative expression,[2],0.09
same,AKT2 relative expression,[2],0.55
same,AKT3 relative expression,[2],0.00
same,IGF1 relative expression,[2],0.00
same,PK3CA relative expression,[2],0.00
same,PK3R1 relative expression,[2],0.03
same,BRCA2 relative expression,[3],0.40
same,MDM2 relative expression,[3],0.00
same,TP53 relative expression,[3],0.26
same,HSP90AA1 relative expression,"normalized for GAPDH, Heat sock protein",0.00
same,NFKB1 relative expression,[4],0.11
same,NFKB2 relative expression,[4],0.02
same,REL relative expression,[4],0.09
same,RELA relative expression,[4],0.00
same,RELB relative expression,[4],0.06
same,RHOA relative expression,[4],0.07
same,RHOB relative expression,[4],0.03
same,BRAF relative expression,[5],0.16
same,E2F1 relative expression,[5],0.16
same,E2F3 relative expression,[5],0.09
same,E2F4 relative expression,[5],0.19
same,EGF relative expression,[5],0.00
same,EGFR relative expression,[5],0.19
same,ELK1 relative expression,[5],0.11
same,ERBB2 relative expression,[5],0.05
same,GRB2 relative expression,[5],0.28
same,HBEGF relative expression,[5],0.46
same,KRAS relative expression,[5],0.01
same,MAP2K1 relative expression,[5],0.04
same,MAP2K2 relative expression,[5],0.09
same,MAPK1 relative expression,[5],0.03
same,MAPK3 relative expression,[5],0.01
same,RAF1 relative expression,[5],0.07
same,RB1 relative expression,[5],0.03
same,SOS1 relative expression,[5],0.07
same,TGFB2 relative expression,[6],0.00
same,TGFB3 relative expression,[6],0.00
same,TGFBR1 relative expression,[6],0.00
same,SMAD2 relative expression,[7],0.21
same,SMAD3 relative expression,[7],0.24
same,SMAD4 relative expression,[7],0.09
same,TGFA relative expression,[7],0.20
same,TGFB1 relative expression,[7],0.04
same,TGFBR2 relative expression,[7],0.00
same,FIGF relative expression,[8],0.14
same,VEGFA relative expression,[8],0.02
same,VEGFB relative expression,[8],0.04
same,VEGFC relative expression,[8],0.00
same,BCL2L1 relative expression,[9],0.26
same,BCL2 relative expression,[9],0.00
same,BIRC5 relative expression,[9],0.16
same,CCNA2 relative expression,[10],0.09
same,CCNB1 relative expression,[10],0.40
same,CCND1 relative expression,[10],0.12
same,CCND2 relative expression,[10],0.00
same,CCNE1 relative expression,[10],0.13
same,CCNE2 relative expression,[10],0.09
same,CDC42 relative expression,[10],0.00
same,CDK2 relative expression,[10],0.09
same,CDK4 relative expression,[10],0.20
same,CDKN1A relative expression,[10],0.08
same,CDKN1B relative expression,[10],0.11
same,CDKN2A relative expression,[10],0.20
same,CDKN2B relative expression,[10],1.98
same,CDKN2C relative expression,[10],0.17
same,CDKN2D relative expression,[10],0.05
same,IL6 relative expression,[11],0.00
same,JAK1 relative expression,[11],0.02
same,JAK2 relative expression,[11],0.02
same,JAK3 relative expression,[11],0.00
same,STAT1 relative expression,[11],0.13
same,STAT2 relative expression,[11],0.00
same,STAT3 relative expression,[11],0.08
same,STAT6 relative expression,[11],0.01
same,STATSB relative expression,[11],0.49
same,MMP1 relative expression,"normalized for GAPDH, invasion",0.08
same,MMP2 relative expression,"normalized for GAPDH, invasion",0.00
same,MMP3 relative expression,"normalized for GAPDH, invasion",0.01
same,MMP7 relative expression,"normalized for GAPDH, invasion",0.01
same,MMP9 relative expression,"normalized for GAPDH, invasion",0.04
same,PTGS2 relative expression,"normalized for GAPDH, invasion",0.03
same,RAC1 relative expression,"normalized for GAPDH, invasion",0.00
same,RAC2 relative expression,"normalized for GAPDH, invasion",0.01
same,KIT relative expression,[12],0.01
same,NOTCH1 relative expression,[12],0.38
same,SRC relative expression,[12],0.07
